Measured values as given in article PMC3478134 (Cancer cell, 2012).

Experiments:
USP7 [1] = target: T1, USP7 (Homo sapiens, UniProt Q93009); test: Ub-PLA2 isopeptidase reporter assay, USP7; assay type: biochemical; settings: for USP7 inhibitory activity (SAR): Fig 1C/1D
[2] = tested on: other DUBs or other families of cysteine proteases; test: Ub-PLA2 / protease panel, selectivity; assay type: biochemical; settings: read-out: EC50, other DUBs or other families of cysteine proteases; Fig 1D
USP7 [3] = target: T1, USP7; test: HA-UbVME active site probe competition, HEK293T cells; assay type: cell-based; settings: lysates from treated HEK293T cells; concentrations as low as
other DUBs = test: HA-UbVME probe labeling of other DUBs, HEK293T cells; assay type: cell-based; settings: even at 40 μM
USP5 = USP5 (Homo sapiens, UniProt P45974); test: DUB inhibition in cells; assay type: cell-based; settings: Fig S1A
UCHL1 = UCHL1 (Homo sapiens, UniProt P09936); test: DUB inhibition in cells; assay type: cell-based; settings: Fig S1A
UCHL3 = UCHL3 (Homo sapiens, UniProt P15374); test: DUB inhibition in cells; assay type: cell-based; settings: Fig S1A
USP7 [4] = target: T1, USP7; test: Ubiquitin-linked K48 chain cleavage assay, USP7; assay type: biochemical; settings: Ub7 and K48-linked chains
HCT116 (WT) cells = test: MTT viability, HCT116; assay type: cell-based, human; settings: 24, 48, 72 hr
HCT116 USP7^−/− cells = test: MTT viability, HCT116 USP7^−/−; assay type: cell-based, human; settings: HCT116 USP7^−/− versus WT
U2OS cells = test: IC50 in U2OS cells; assay type: cell-based
HDM2 = HDM2 ubiquitylation; assay type: cell-based; settings: U2OS
USP7 [5] = target: T1, USP7; test: Cellular USP7 activity in MM.1S cells, Ub-EKL assay after immunoprecipitation; assay type: cell-based; settings: 3 hr, concentration-dependent
proteasome = test: Proteasome activity in MM.1S cells; assay type: cell-based, human; settings: for Chymotrypsin-like (CT-L) proteasome activity: MM.1S cells, 3 hr
[6] = tested on: purified patient MM cells; test: Purified patient MM cell viability; assay type: cell-based, human; settings: 8 MM patients, 48 hr
ANBL-6.WT cells = test: Cell viability, ANBL-6.WT; assay type: cell-based
ANBL-6.BR cells = test: Cell viability, ANBL-6.BR; assay type: cell-based
[7] = tested on: MM.1S cells cultured with BMSCs; test: MM.1S proliferation with BMSCs, 3H-TdR uptake; assay type: cell-based, human; settings: 72 hr
MM cells = test: Apoptosis; assay type: cell-based, human; settings: Fig S3E
HDM2, HDMX, p53, p21 = test: Immunoblot of HDM2/HDMX/p53/p21 in MM.1S and RPMI-8226 cells; assay type: cell-based, human; settings: 6.25 and 12.5 μM, 24 hr
MM.1S cells [8] = test: Viability of scr- or HDM2-siRNA transfected MM.1S cells; assay type: cell-based, human; settings: 24 hr
p53^−/− MEFs = test: Viability, p53^−/− MEFs; assay type: cell-based, mouse; settings: 48 hr
p53^−/−/MDM2^−/− MEFs = test: Viability, p53^−/−/MDM2^−/− MEFs; assay type: cell-based, mouse; settings: 48 hr
MM.1S cells [9] = test: Viability of scr- or p53-siRNA transfected MM.1S cells; assay type: cell-based, human; settings: 48 hr
[10] = tested on: HCT116 p53 (WT) and HCT116 p53^−/− cells; test: Viability, HCT116 p53; assay type: cell-based, human; settings: 72 hr
ARP-1 MM cells = test: Viability, p53-null ARP-1 MM cells; assay type: cell-based, human; settings: p53-null ARP-1, 48 hr
MM.1S cells [11] = test: Viability of scr- or p21-siRNA transfected MM.1S cells; assay type: cell-based, human; settings: 48 hr
INA-6 MM tumors = test: SCID-hu model, INA-6 MM tumors, serum shIL-6R; assay type: in vivo, mice; settings: 10 mg/kg
HCT116 p21^−/− cells = settings: 48 hr, versus HCT116 (WT)
[12] = mouse, in vivo
CCRF-CEM leukemic tumors = test: CCRF-CEM leukemic xenograft; settings: 10 mg/kg twice weekly for 3 weeks
ARP-1 MM tumors = test: Human p53-null ARP-1 MM xenograft
MM.1S MM tumors = test: Human MM.1S plasmacytoma xenograft
[13] = Tolerability in tumor-bearing mice; settings: twice-weekly schedule
MM cell lines = test: MM cell line viability; assay type: cell-based, human
[14] = tested on: MM cells from bortezomib-resistant patients; test: Viability of MM cells from bortezomib-resistant patients; assay type: cell-based, human; settings: 12.5 nM, 48 hr, in 3 of 6 samples
[15] = 10 mg/kg IV twice weekly for 3 weeks

T1 sequence (Q93009 whole entry): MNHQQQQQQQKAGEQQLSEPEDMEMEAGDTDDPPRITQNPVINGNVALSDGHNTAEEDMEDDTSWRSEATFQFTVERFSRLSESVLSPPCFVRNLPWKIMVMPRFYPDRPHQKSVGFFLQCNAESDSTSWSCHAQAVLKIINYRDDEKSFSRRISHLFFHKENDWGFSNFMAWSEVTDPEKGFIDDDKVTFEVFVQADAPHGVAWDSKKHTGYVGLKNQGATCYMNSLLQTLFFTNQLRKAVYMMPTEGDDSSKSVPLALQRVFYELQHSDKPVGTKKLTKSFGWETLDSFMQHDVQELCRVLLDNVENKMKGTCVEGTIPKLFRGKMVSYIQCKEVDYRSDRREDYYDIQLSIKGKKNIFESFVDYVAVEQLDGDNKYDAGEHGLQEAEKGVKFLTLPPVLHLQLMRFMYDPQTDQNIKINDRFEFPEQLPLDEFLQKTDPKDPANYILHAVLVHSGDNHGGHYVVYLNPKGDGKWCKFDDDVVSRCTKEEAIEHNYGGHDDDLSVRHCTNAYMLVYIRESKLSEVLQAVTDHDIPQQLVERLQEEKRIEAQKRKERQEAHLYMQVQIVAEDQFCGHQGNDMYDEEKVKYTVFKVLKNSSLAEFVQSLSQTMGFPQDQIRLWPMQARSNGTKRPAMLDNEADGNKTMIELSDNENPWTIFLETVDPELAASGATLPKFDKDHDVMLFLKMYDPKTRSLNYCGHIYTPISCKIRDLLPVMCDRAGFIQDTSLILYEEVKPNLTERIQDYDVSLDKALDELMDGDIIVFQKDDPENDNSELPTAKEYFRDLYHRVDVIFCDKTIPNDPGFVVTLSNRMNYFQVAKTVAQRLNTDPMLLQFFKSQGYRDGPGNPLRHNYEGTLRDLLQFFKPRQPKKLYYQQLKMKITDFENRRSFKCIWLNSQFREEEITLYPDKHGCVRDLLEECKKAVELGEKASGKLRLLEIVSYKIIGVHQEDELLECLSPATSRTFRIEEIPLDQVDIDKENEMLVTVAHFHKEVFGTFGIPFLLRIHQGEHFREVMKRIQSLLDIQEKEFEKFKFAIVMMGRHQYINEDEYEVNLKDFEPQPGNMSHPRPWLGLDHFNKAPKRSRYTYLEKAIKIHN
Sequence of USP5 (P45974 whole entry): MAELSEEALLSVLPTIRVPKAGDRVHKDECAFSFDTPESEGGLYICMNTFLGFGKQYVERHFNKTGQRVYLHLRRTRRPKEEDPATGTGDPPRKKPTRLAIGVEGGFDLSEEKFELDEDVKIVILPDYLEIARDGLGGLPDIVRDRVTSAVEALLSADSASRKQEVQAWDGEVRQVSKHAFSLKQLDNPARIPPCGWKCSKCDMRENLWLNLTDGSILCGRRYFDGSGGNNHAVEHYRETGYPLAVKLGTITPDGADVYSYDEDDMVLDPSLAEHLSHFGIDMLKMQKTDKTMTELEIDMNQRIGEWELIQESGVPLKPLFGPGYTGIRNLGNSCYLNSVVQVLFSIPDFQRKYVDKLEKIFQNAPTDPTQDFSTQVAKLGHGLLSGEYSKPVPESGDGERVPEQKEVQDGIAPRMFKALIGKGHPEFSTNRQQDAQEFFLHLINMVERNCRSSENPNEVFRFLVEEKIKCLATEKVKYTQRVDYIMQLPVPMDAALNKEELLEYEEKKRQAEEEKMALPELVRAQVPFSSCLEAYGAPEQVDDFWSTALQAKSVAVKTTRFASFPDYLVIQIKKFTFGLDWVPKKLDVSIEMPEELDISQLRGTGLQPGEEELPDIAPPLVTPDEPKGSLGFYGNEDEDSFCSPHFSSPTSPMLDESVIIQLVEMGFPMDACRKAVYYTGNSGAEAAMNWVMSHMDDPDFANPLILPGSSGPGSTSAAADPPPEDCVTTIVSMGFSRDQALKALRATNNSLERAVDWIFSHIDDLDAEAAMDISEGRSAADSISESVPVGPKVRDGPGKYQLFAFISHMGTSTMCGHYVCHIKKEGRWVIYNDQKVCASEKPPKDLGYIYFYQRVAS
Sequence of UCHL3 (P15374 whole entry): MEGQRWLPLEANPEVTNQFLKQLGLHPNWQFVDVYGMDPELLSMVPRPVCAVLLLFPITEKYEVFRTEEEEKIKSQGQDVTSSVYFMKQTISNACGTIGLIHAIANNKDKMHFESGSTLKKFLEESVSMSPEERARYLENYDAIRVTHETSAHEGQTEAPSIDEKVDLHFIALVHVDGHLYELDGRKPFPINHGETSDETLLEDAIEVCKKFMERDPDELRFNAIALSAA
Sequence of UCHL1 (P09936 whole entry): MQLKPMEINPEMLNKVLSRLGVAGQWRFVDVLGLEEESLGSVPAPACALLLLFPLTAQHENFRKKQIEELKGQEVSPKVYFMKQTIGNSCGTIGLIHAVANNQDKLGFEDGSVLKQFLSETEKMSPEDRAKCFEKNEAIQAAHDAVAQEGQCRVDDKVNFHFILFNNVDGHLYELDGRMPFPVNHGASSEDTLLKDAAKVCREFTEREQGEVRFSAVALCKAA

In the case of `CC(=O)c1cc([N+](=O)[O-])c(Sc2cccc(Cl)c2Cl)s1` [P5091], the EC50 (USP7 [1]; read-out: EC50, deubiquitylating activity against USP7, Ub-PLA2 reporter assay) is reported as 4.2 ± 0.9 µM, the EC50 [2] is reported as over 100 µM and the “Concentration inhibiting Ub-USP7 conjugate formation (HA-UbVME labeling)” value (USP7 [3]) is reported as 5 to 10 µM. The “Labeling of other DUBs with Ub-VME” value (other DUBs) was “No gross difference”, the “Inhibition of USP5” value (USP5) was “did not inhibit” and the “Inhibition of UCHL1” value (UCHL1) was “did not inhibit”. The “Inhibition of UCHL3” value (UCHL3) was “did not inhibit”, the “USP7-mediated cleavage of poly ubiquitin chains” value (USP7 [4]) was “inhibited in a dose-dependent manner” and the Cell viability (HCT116 (WT) cells) was “decreased the viability”. The Cytotoxic activity (HCT116 USP7^−/− cells) was “marked reduction in P5091 cytotoxic activity”, the IC50 (U2OS cells) was 15 µM and the HDM2 degradation (HDM2; 15 μM, versus CHX alone) was “accelerates the degradation of HDM2”. The HDM2 ubiquitination (HDM2; HA-Ub transfected, 30 μM, 4 hr) was “markedly increases HDM2 ubiquitination”, the “Inhibition of USP7 activity” value (USP7 [5]) was over 50% and the “Caspase-like (C-L) proteasome activity” value (proteasome; 25–50 μM) was “no effect”. For the same compound, the “Trypsin-like (T-L) proteasome activity” value (proteasome; 25–50 μM) was “no effect”, the “Chymotrypsin-like (CT-L) proteasome activity” value (proteasome) was “no significant inhibition” and the “Viability of patient MM cells” value [6] was “dose-dependent decrease in the viability”. For the same compound, the IC50 (ANBL-6.WT cells; ANBL-6.WT, 48 hr) was 6.83 µM, the IC50 (ANBL-6.BR cells; ANBL-6.BR, 48 hr) was 9.85 µM and the “IC50 ratio (ANBL-6.BR/ANBL-6.WT)” value (ANBL-6.BR cells; p < 0.001) was “significantly less than bortezomib”. For the same compound, the “BMSCs-induced proliferation of MM.1S” value [7] was “inhibited BMSCs-induced proliferation”, the “Apoptosis (Annexin V/PI)” value (MM cells) was “accumulation of cells in early (Ann V^+/PI^−) and late stage (Ann V^+/PI^+) apoptosis” and the “HDM2, HDMX, p53 and p21 protein levels” value (HDM2, HDMX, p53, p21) was “decreased HDM2 and HDMX, as well as upregulated p53 and p21 levels”. For the same compound, the “Percentage of viable cells” value (MM.1S cells [8]; HDM2-siRNA, P5091 6.25 μM) was 73.3%, the “Percentage of viable cells” value (MM.1S cells [8]; HDM2-siRNA, P5091 12.5 μM) was 19.2% and the “Percentage of viable cells” value (MM.1S cells [8]; scr-siRNA, P5091 6.25 μM) was 47.2%. The “Percentage of viable cells” value (MM.1S cells [8]; scr-siRNA, P5091 12.5 μM) was 8.6%, the IC50 (p53^−/− MEFs) was 7.72 µM and the IC50 (p53^−/−/MDM2^−/− MEFs) was 20.9 µM. For the same compound, the “Effect of p53 depletion by siRNA on drug-induced decrease in viability” value (MM.1S cells [9]) was “does not affect”, the “Cytotoxicity in HCT116 p53 (WT) versus HCT116 p53^−/−” value [10] was “equipotent cytotoxicity in both cell types” and the Cell viability (ARP-1 MM cells) was “decreases the viability”. For the same compound, the “Effect of p21 silencing with siRNA on cytotoxicity” value (MM.1S cells [11]) was “attenuates P5091-induced cytotoxicity”, the “Tumor growth (serum shIL-6R)” value (INA-6 MM tumors) was “inhibited tumor growth” and the “Cytotoxicity in HCT116 p21^−/− cells” value (HCT116 p21^−/− cells) was “significantly blocked”. The Blood chemistry profile [12] was “normal levels of bilirubin, hemoglobin, and creatinine”, the Weight loss [12] was “no significant weight loss” and the Survival (CCRF-CEM leukemic tumors) was “prolongs survival”. The Tumor growth (CCRF-CEM leukemic tumors) was “inhibits leukemic tumor growth”, the Survival (ARP-1 MM tumors; [15]) was “prolongs survival” and the Tumor growth (ARP-1 MM tumors; [15]) was “inhibits MM tumor growth”. For the same compound, the “USP7 activity in tumors” value (ARP-1 MM tumors; compared with control mice, at 3 hr) was “marked inhibition of USP7 activity”, the Survival (MM.1S MM tumors; [15]) was “prolongs survival” and the Tumor growth (MM.1S MM tumors; [15]) was “inhibits MM tumor growth”. For the same compound, the “Proliferation in harvested tumors” value (MM.1S MM tumors; BrdU and Ki67 staining) was “decreases proliferation”, the Apoptotic tumor cells (MM.1S MM tumors; cleaved caspase-3, TUNEL, versus vehicle) was “increases the number of cleaved-caspase-3-, and TUNEL-positive apoptotic tumor cells” and the “Angiogenesis markers in tumors” value (MM.1S MM tumors; immunostaining VEGFR2, PECAM1) was “decreases the number of VEGFR2- and PECAM1-positive cells”. For the same compound, the “USP7 activity in harvested tumors” value (MM.1S MM tumors; relative to control mice) was “inhibited USP7 activity” and the MTD dose [13] was 20 mg/kg.

With `CC(=O)c1cc([N+](=O)[O-])c(Sc2ccccc2)s1` [P22074] the “USP7 inhibitory activity (SAR)” value (USP7 [1]) was “inactive”, the “USP7 inhibitory activity (SAR)” value (USP7 [1]; listed as 1) was “not active” and the “Effect on viability of MM cell lines” value (MM cell lines) was “no significant effect”.

For `CC(C)C[C@H](NC(=O)[C@H](Cc1ccccc1)NC(=O)c1cnccn1)B(O)O` [bortezomib, reference compound], the “Chymotrypsin-like (CT-L) proteasome activity” value (proteasome) was “blocks”, the Decrease in viability [14] was 10%–50% and the IC50 (ANBL-6.WT cells; 48 h) was 0.00232 µM. The IC50 (ANBL-6.BR cells; 48 h) was 0.0121 µM.
